Here are results for one compound from paper PMC8536644, “Enigmatic mechanism of the N-vinylpyrrolidone hepatocarcinogenicity in the rat” (Archives of Toxicology, 2021).

“And” between values parts separate entries of the source, which are not always exact repeats. Identical values can stand only once.

In one data set the test system is CYP4A. Briefly: Lauric acid hydroxylase assay, 12-hydroxylation (PPARα marker). It counts as in vivo, rat. On the procedure: ^14C-labelled lauric acid (55 mCi/mmol) dissolved in ethanol (0.1 mCi/mL; total volume 2.5 mL) was purchased from American Radiolabeled Chemicals. 10 µL of this solution were diluted with methanol to 2 mL. The purity was checked by radio-HPLC. For the enzyme activity determinations 1.21 mL of this solution were treated in the thermomixer at 40 °C and 300 rpm until the ethanol was completely evaporated. The residue was taken up in 550 µL DMSO and checked on the incubation days by radio-HPLC and by liquid scintillation counting (LSC). To this end the just-mentioned solution in DMSO (nominally 8.14 MBq/mL) was 100-fold diluted with methanol, 50 µL of the resultant solution used for the HPLC analysis, 100 µL for the LSC analysis (488,400 dpm/100 µL).
For the determination of the lauric acid hydroxylase activity the liver microsomal fractions (prepared as described in the preceding chapter “Aryl hydrocarbon receptor”) derived from the NVP-treated (and untreated control) male rats were adjusted with TrisHCl pH 7.5–20 mg protein/mL. Obtained samples were measured in duplicates. Controls were heat-denatured samples (15 min at 99 °C in the thermomixer at 450 rpm), zero-time samples (reaction stopped immediately after adding substrate) and buffer controls (TrisHCl pH 7.5, no microsomal protein). 155 µL master mix (100 mM TrisHCl pH 7.5, 10 mM MgCl2, 2 mM 5’AMP-Na2, 5 mM G-6-P, 10 U G-6-P-DH) and 30 µL sample were preincubated for 3 min at 37 °C. Subsequently 10 µL of a 2-mM NADPH solution and 5 µL ^14C-lauric acid (8.14 MBq/mL) were added (lauric acid final concentration in the incubation 100 µM). The reaction was run for 20 min at 37 °C in the thermomixer (450 rpm) and stopped by the addition of 200 µL ice-cold acetone. […]

For the next data set, the system named is rats. On the set-up: method as in Klimisch et al. [1997b]. The note with it: ref Klimisch et al. [1997b], cited from earlier work.
A further data set relates to rat liver. Briefly: Liver histology, Oil Red O staining. The data set is classed as in vivo. The note with it: high dose group (20 ppm). The method, then: ORO staining was performed essentially according to Lillie and Ashburn ([1943]), specifically under the following conditions:
Parts of the frozen (− 80 °C) livers from rats treated with 0, 5, 10 or 20 ppm NVP were soaked in tap water and then thoroughly frozen at − 40 °C. Subsequently they were cut at -10 to -15 °C into slices of 12–20 µm and stored in water until starting the staining procedure. The slices were then left for approximately 5 min in 60% isopropanol, subsequently stained for 10–12 min in ORO solution (5 g ORO dissolved in 1 L isopropanol, to this solution added 400 mL H2O, left at room temperature for 24 h and then filtered) and subsequently differentiated by immersing 2–3 times into 60% isopropanol. Afterwards they were left in water until they collected at the surface. Finally the slices were stained for 3 min in hematoxylin solution (1 g hematoxylin, 50 g KAl(SO4)2, 50 g chloral hydrate, 1 g citric acid/L H2O, then for maturation 0.2 g NaIO3/L). Subsequently they were left at least 10 min in water. Finally, the slices were transferred to microscope slides and covered with 40–60 °C warm Kaiser’s glycerol gelatin.

Another data set deals with CYP 2B/3A. Briefly: BROD assay, liver microsomes (PXR marker). The data set is classed as in vivo, rat. To be noted: male rats. On the procedure: The alkoxyresorufin dealkylase (AROD) assays were based on the method by Burke et al. ([1994]).
The frozen livers and lungs of the NVP-treated male Wistar rats were thawed and washed with isotonic (0.9%) NaCl solution. The tissues were ice-cooled homogenized (1 g tissue: 3 mL 0.25 M saccharose in 1 mM disodium EDTA, pH 7.4) and centrifuged (9000 g, 15 min, 4 °C). The supernatant fraction was centrifuged (100 000 g, 60 min, 4 °C). The resulting supernatant fraction was used for the palmitoyl-CoA-oxidase assay described further down. The pellet was taken up in 150 mM aqueous KCl solution, recentrifuged (100 000 g, 60 min, 4 °C) and the pellet taken up in 1 mL/g liver or 0.5 mL/g lung resuspension buffer (1 mM GSH, 1 mM disodium EDTA, 4 mM MgCl2, 0.1 M KH2PO4, pH 7.5 and 4% glycerol). Aliquots were stored at − 80 °C.
For determination of the enzyme activities in triplicates, 85 µL master mix (100 mM TrisHCl pH 7.5, 2 mM 5’AMP, 5 mM G-6-P, 10 U G-6-P-DH, 10 mM Dicumarol, 10 mM MgCl2, either 2 µM EROD or 10 µM PROD or 5 µM BROD) was added to 10 µL microsomal fraction (1 mg protein/mL). The reaction was started by the addition of 5 µL 2 mM NADPH (dissolved in 100 mM TrisHCl pH 7.5) followed by incubation at 37 °C for 16 min. The activity was determined by measuring the increase of the fluorescence (excitation at 550 nm, emission at 585 nm) due to resorufin formation compared with resorufin standards, which had been prepared by dissolving tenfold concentrated solutions in DMSO, which were then diluted tenfold in 100 mM TrisHCl pH 7.5.
(Liver microsomes are a subcellular fraction often used to study metabolism.)

Where [1] appears, read: lauric acid 12-hydroxylation, liver microsomes, 20 ppm NVP, individual animals 19-24.

Regarding `C=CN1CCCC1=O` [NVP, N-vinylpyrrolidone], the “Increase of lauric acid 12-hydroxylation vs vehicle control” value with CYP4A (20 ppm, not statistically significant) stood at 1.3 fold. Also, in the data set with CYP4A (setting [1]), the “ω-hydroxylase (CYP4A-activity), enzyme activity individual” value is 20,495 peak surface/min/mg protein and 20,593 peak surface/min/mg protein and 10,543 peak surface/min/mg protein and 14,545 peak surface/min/mg protein and 15,406 peak surface/min/mg protein and 6779 peak surface/min/mg protein; the “ω-hydroxylase (CYP4A-activity), peak surface” value was 27,314 and 28,341 and 15,814 and 21,818 and 23,109 and 11,088. In addition, in the data set on rats (Sprague–Dawley rats, inhalation 3 months, 10 ppm), the “Change of total non-protein-bound sulfhydryls” value is on record as “increase”. Moreover, in the data set with rats (rats, inhalation), the “Concentration at which erythrocytes, hematocrit and hemoglobin were reduced” value is 15 ppm; the “Concentration with foci of altered hepatocytes” value is reported as 5 ppm; the “LOAEC, liver (increased gamma-glutamyl transpeptidase and glutathione)” value is recorded as 5 ppm; the “LOAEC, nasal mucosa (inflammation, olfactory epithelium atrophy, basal cell hyperplasia)” value is on record as 5 ppm. Also, in the data set on rats (subchronic studies in rats and mice), the “Dose with necrosis of single centrilobular liver cells” value was 45 ppm. Also, the “Lipid-staining (oil red O) of centrilobular hepatocellular fatty change” value with rat liver was “positive for only one male and one female animal”. For the same compound, the “Liver microsomal BROD activity” value in the data set with CYP 2B/3A (5 ppm) is listed as 54.5 ± 11.3 pmol/min/mg protein. Further, the “Liver microsomal BROD activity” value in the data set with CYP 2B/3A (10 ppm) amounted to 61.7 ± 16 pmol/min/mg protein. Moreover, the “Liver microsomal BROD activity” value with CYP 2B/3A (20 ppm) worked out at 42.1 ± 16.5 pmol/min/mg protein.
